# Where a name gives a salt, the structure may show the parent alone.
# System: mice
# Assay: Acute Oral LD50 mice (Table I)
# Assay type: in vivo
# From the text: The low toxicity of these compounds makes them especially attractive for use where contact with skin surfaces or possible ingestion renders the use of irritating or toxic materials inadvisable.
# ______________________________________
compound,measurement,value
"Cc1ccc(C(C)(C)C)cc1CCCC(CCCc1cc(C(C)(C)C)ccc1C)NCCCNCCCN [1-[1,7-di-(2-methyl-5-t-butylphenyl)-hydrochloride]",Acute Oral LD50 mice,1650 mg/kg

# Source: patent publication US4260760A, “Diaryl-aliphatic-amino-aliphatic-piperazines” (priority 1979, dated 1981)
